# Test results as given in PubChem BioAssay (NCI).
#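 Compound exposure: 48 hours, 5 concentrations, 96-well plates. TGI: total growth inhibition.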
# How the values were obtained:
# Assay in all cases: NCI anticancer screen, dose series, 48 h
# [1] = tested on: OVCAR-4 ovarian
# [2] = tested on: SF-295 CNS
# [3] = tested on: T-47D breast
# [4] = tested on: SK-MEL-5 melanoma
# [5] = tested on: MDA-MB-231 breast
# [6] = tested on: BT-549 breast
# [7] = tested on: COLO 205 colon
# [8] = tested on: UO-31 renal
# [9] = tested on: HCT-15 colon
# [10] = tested on: HT29 colon
# [11] = tested on: K-562 leukemia
# [12] = tested on: SK-OV-3 ovarian
# [13] = tested on: NCI-H522 lung
# [14] = tested on: KM12 colon
# [15] = tested on: IGROV1 ovarian
# [16] = tested on: OVCAR-8 ovarian
# [17] = tested on: NCI-H226 lung
# [18] = tested on: HOP-62 NSCLC
# [19] = tested on: MCF7 breast
# [20] = tested on: M14 melanoma
# [21] = tested on: MDA-MB-435
# [22] = tested on: A549 NSCLC
# [23] = tested on: MOLT-4 leukemia
# [24] = tested on: CCRF-CEM leukemia
# [25] = tested on: HOP-92 NSCLC
# [26] = tested on: A498 renal
# [27] = tested on: SF-539 CNS
# [28] = tested on: NCI-H460 lung
# [29] = tested on: OVCAR-5 ovarian
# [30] = tested on: SNB-75 CNS
# [31] = tested on: NCI/ADR-RES ovarian
# [32] = tested on: SR leukemia
# [33] = tested on: SK-MEL-2 melanoma
# [34] = tested on: NCI-H23 lung
# [35] = tested on: SN12C renal
# [36] = tested on: CAKI-1 renal
# [37] = tested on: MALME-3M melanoma
# [38] = tested on: SK-MEL-28 melanoma
# [39] = tested on: PC-3 prostate
# [40] = tested on: SW-620 colon
# [41] = tested on: DU-145 prostate
# [42] = tested on: TK-10 renal
# [43] = tested on: UACC-62 melanoma
# [44] = tested on: HCC-2998 colon
# [45] = tested on: HCT-116 colon
# [46] = tested on: SF-268 CNS
# [47] = tested on: 786-0 renal
# [48] = tested on: ACHN renal
# [49] = tested on: OVCAR-3 ovarian
# [50] = tested on: U251 CNS
# [51] = tested on: HS 578T breast
# [52] = tested on: RPMI-8226 leukemia
# [53] = tested on: RXF 393 renal
# [54] = tested on: UACC-257 melanoma
# [55] = tested on: HL-60(TB) leukemia
# [56] = tested on: SNB-19 CNS
# [57] = tested on: EKVX NSCLC
structure (smiles),measurement,setting,value
COc1ccc2c(c1)-c1c(c3cc(OC)ccc3n1CCN1CCOCC1)CC2,TGI,[1],> 100 µM
same,TGI,[2],55.2 µM
same,TGI,[3],> 100 µM
same,TGI,[4],79.5 µM
same,TGI,[5],> 100 µM
same,TGI,[6],> 100 µM
same,TGI,[7],37.3 µM
same,TGI,[8],> 100 µM
same,TGI,[9],39.4 µM
same,TGI,[10],28.1 µM
same,TGI,[11],36.2 µM
same,TGI,[12],> 100 µM
same,TGI,[13],> 100 µM
same,TGI,[14],> 100 µM
same,TGI,[15],> 100 µM
same,TGI,[16],> 100 µM
same,TGI,[17],30.6 µM
same,TGI,[18],> 100 µM
same,TGI,[19],> 100 µM
same,TGI,[20],35 µM
same,TGI,[21],> 100 µM
same,TGI,[22],> 100 µM
same,TGI,[23],33.6 µM
same,TGI,[24],35.6 µM
same,TGI,[25],> 100 µM
same,TGI,[26],> 100 µM
same,TGI,[27],93.6 µM
same,TGI,[28],> 100 µM
same,TGI,[29],> 100 µM
same,TGI,[30],> 100 µM
same,TGI,[31],98.4 µM
same,TGI,[32],22 µM
same,TGI,[33],> 100 µM
same,TGI,[34],> 100 µM
same,TGI,[35],> 100 µM
same,TGI,[36],> 100 µM
same,TGI,[37],79.2 µM
same,TGI,[38],> 100 µM
same,TGI,[39],> 100 µM
same,TGI,[40],> 100 µM
same,TGI,[41],> 100 µM
same,TGI,[42],> 100 µM
same,TGI,[43],52.6 µM
same,TGI,[44],18.5 µM
same,TGI,[45],> 100 µM
same,TGI,[46],> 100 µM
same,TGI,[47],42.5 µM
same,TGI,[48],> 100 µM
same,TGI,[49],> 100 µM
same,TGI,[50],> 100 µM
same,TGI,[51],39.9 µM
same,TGI,[52],85.5 µM
same,TGI,[53],98 µM
same,TGI,[54],> 100 µM
O=[N+]([O-])c1ccc(-c2nc(/C=N/N3CCCCC3)cs2)o1,TGI,[55],> 100 µM
same,TGI,[1],> 100 µM
same,TGI,[2],> 100 µM
same,TGI,[56],> 100 µM
same,TGI,[3],> 100 µM
same,TGI,[4],59.5 µM
same,TGI,[5],> 100 µM
same,TGI,[6],> 100 µM
same,TGI,[7],> 100 µM
same,TGI,[8],> 100 µM
same,TGI,[9],> 100 µM
same,TGI,[10],57.1 µM
same,TGI,[11],> 100 µM
same,TGI,[12],> 100 µM
same,TGI,[13],> 100 µM
same,TGI,[14],> 100 µM
same,TGI,[15],> 100 µM
same,TGI,[57],> 100 µM
same,TGI,[16],> 100 µM
same,TGI,[17],> 100 µM
same,TGI,[18],> 100 µM
same,TGI,[19],> 100 µM
same,TGI,[20],> 100 µM
same,TGI,[21],62.6 µM
same,TGI,[22],> 100 µM
same,TGI,[23],67 µM
same,TGI,[25],> 100 µM
same,TGI,[27],> 100 µM
same,TGI,[28],> 100 µM
same,TGI,[29],> 100 µM
same,TGI,[30],> 100 µM
same,TGI,[31],> 100 µM
same,TGI,[32],73 µM
same,TGI,[33],> 100 µM
same,TGI,[34],> 100 µM
same,TGI,[35],68.1 µM
same,TGI,[36],> 100 µM
same,TGI,[37],76.6 µM
same,TGI,[38],> 100 µM
same,TGI,[39],> 100 µM
same,TGI,[40],> 100 µM
same,TGI,[41],> 100 µM
same,TGI,[42],> 100 µM
same,TGI,[43],> 100 µM
same,TGI,[45],> 100 µM
same,TGI,[46],> 100 µM
same,TGI,[47],> 100 µM
same,TGI,[48],> 100 µM
same,TGI,[49],82.4 µM
same,TGI,[50],> 100 µM
same,TGI,[51],> 100 µM
same,TGI,[52],39.8 µM
same,TGI,[53],> 100 µM
same,TGI,[54],50.7 µM
